In US20140221389A1, “USE OF 4-AMINO-5-FLUORO-3-[6-(4-METHYLPIPERAZIN-1-YL)-1H-BENZIMIDAZOL-2-YL]-1H-QUINOLIN-2-ONE IN THE TREATMENT OF CANCER IN MODERATE HEPATIC IMPAIRED PATIENTS” (Novartis AG, priority 2011, published 2014):

Test: Plasma pharmacokinetics of COMPOUND I in Phase I and II studies
Format: in vivo, patients

With `CN1CCN(c2ccc3nc(-c4c(N)c5c(F)cccc5[nH]c4=O)[nH]c3c2)CC1` [COMPOUND I, 4-amino-5-fluoro-3-[6-(4-methylpiperazin-1-yl)-1H-benzimidazol-2-yl]-1H-quinolin-2-one] the “inter-subject coefficient of variation (CV %) for AUC” value (500 mg/day on a 5 days on/2 days off dosing schedule) was “around 50%”, the plasma pharmacokinetic (all doses tested from 25 to 600 mg, continuous daily dosing regimen) was “time dependent” and the “exposure of COMPOUND I with dose” value (doses of 400 mg/day and above, continuous daily dosing regimen) was “prolonged over-proportional exposure”.
